Test results taken from the supplement of paper PMC8960247.
± gives the standard error.

Tests used:
621-103 (TSC2-rescued) = test: relative viability vs DMSO; higher = less cytotoxic; conditions: serum: 10% FBS, 72 h
621-102 (TSC2-deficient) = test: as above; conditions: serum: 10% FBS, 72 h
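Further: immortalized renal angiomyolipoma cells stably carrying empty vector or TSC2, dosed in 384-well plates in DMEM, viability normalized to vehicle-treated wells within each plate.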

SMILES | relative viability (621-103 (TSC2-rescued); 0.0001 µM) [%] | relative viability (621-103 (TSC2-rescued); 0.001 µM) [%] | relative viability (621-103 (TSC2-rescued); 0.01 µM) [%] | relative viability (621-103 (TSC2-rescued); 0.1 µM) [%] | relative viability (621-103 (TSC2-rescued); 1 µM) [%] | relative viability (621-103 (TSC2-rescued); 10 µM) [%] | relative viability (621-102 (TSC2-deficient); 0.0001 µM) [%] | relative viability (621-102 (TSC2-deficient); 0.001 µM) [%] | relative viability (621-102 (TSC2-deficient); 0.01 µM) [%] | relative viability (621-102 (TSC2-deficient); 0.1 µM) [%] | relative viability (621-102 (TSC2-deficient); 1 µM) [%] | relative viability (621-102 (TSC2-deficient); 10 µM) [%]
COc1cccc(-c2cc(=O)c3ccccc3o2)c1N | 100 ± 2.6 | 99.7 ± 1.8 | 103 ± 1.9 | 99.8 ± 1.2 | 98.6 ± 2.6 | 97.6 ± 3.2 | 109 ± 2.8 | 103 ± 3 | 104.2 ± 0.83 | 104 ± 6 | 107.8 ± 0.69 | 109 ± 2.6
COc1cccc(Nc2c(C(N)=O)cnc3c(C)cc(S(=O)(=O)c4cccc(C(=O)N(C)C)c4)cc23)c1 | 104 ± 3.4 | 103.1 ± 0.49 | 102 ± 3.5 | 103.2 ± 0.47 | 95.9 ± 3.8 | 93.3 ± 3.2 | 105 ± 5 | 102 ± 2.6 | 97.2 ± 5.1 | 104 ± 2.7 | 97.1 ± 0.98 | 95.9 ± 2
COc1ncc(-c2ccc3nccc(-c4ccnnc4)c3c2)cc1NS(=O)(=O)c1ccc(F)cc1F | 107 ± 3.9 | 101.89 ± 0.069 | 91 ± 4.4 | 61.4 ± 2.5 | 47.565 ± 0.012 | 41 ± 2.4 | 80.7 ± 11 | 68.1 ± 1.7 | 59.2 ± 0.65 | 38.9 ± 1.5 | 23.3 ± 2 | 26.3 ± 1.8
C[C@@H](Oc1cc(-c2cnn(C3CCNCC3)c2)cnc1N)c1c(Cl)ccc(F)c1Cl | 99.34 ± 0.12 | 102.8 ± 0.57 | 102 ± 1.5 | 103 ± 1.6 | 101.6 ± 0.21 | 5.36 ± 0.69 | 105.6 ± 0.81 | 97.3 ± 6.2 | 104 ± 2.6 | 106 ± 1.4 | 98 ± 2.9 | 10.7 ± 1.4
C[C@@H](Oc1cc(-n2cnc3ccc(CN4CCN(C)CC4)cc32)sc1C(N)=O)c1ccccc1C(F)(F)F | 100 ± 1.7 | 71.9 ± 4.3 | 60.2 ± 0.98 | 48.49 ± 0.29 | 40.7 ± 0.62 | 9.95 ± 0.89 | 97.01 ± 0.82 | 88.1 ± 1.3 | 64.5 ± 3.1 | 45.3 ± 0.63 | 40.7 ± 3.1 | 27.1 ± 3.8
C[C@@H]1CN(CC(=O)Nc2ccc3c(c2)Cc2cccc(-c4cc(=O)cc(N5CCOCC5)o4)c2S3)C[C@H](C)O1 | 79.7 ± 1.1 | 86 ± 3.5 | 83 ± 0.38 | 84.6 ± 1 | 77.8 ± 3.1 | 59.4 ± 5.5 | 101 ± 1.9 | 96.34 ± 0.66 | 96.06 ± 0.86 | 97.1 ± 2.1 | 97.3 ± 1.5 | 65.9 ± 0.85
Cc1ccc(CN2CCNCC2)cc1NC(=O)CNc1ccc(F)c(F)c1 | 113 ± 3.6 | 98.9 ± 2 | 108 ± 3.7 | 102 ± 2.5 | 95.4 ± 2.7 | 90.85 ± 0.73 | 112 ± 2.2 | 98.3 ± 5.5 | 100.6 ± 0.38 | 104 ± 3.2 | 88 ± 1.4 | 92.96 ± 0.19
Cc1cccc(-c2nn3c(c2-c2ccnc4ccc(C(N)=O)cc24)CCC3)n1 | 102.4 ± 0.59 | 93.4 ± 3.5 | 97.8 ± 2.9 | 97.7 ± 2.5 | 99.2 ± 0.91 | 106 ± 1.6 | 97.6 ± 7.5 | 87.2 ± 2 | 95.57 ± 0.43 | 109 ± 5.5 | 96 ± 2.2 | 93.9 ± 4.6
Cc1ccccc1-n1c(Cn2cnc3c(N)ncnc32)nc2cccc(C)c2c1=O | 100.1 ± 0.63 | 100.4 ± 0.26 | 98 ± 1.1 | 100 ± 1.5 | 99.34 ± 0.9 | 96.2 ± 2.4 | 108.5 ± 0.61 | 117.2 ± 0.36 | 118 ± 4 | 116.3 ± 0.6 | 101.3 ± 0.42 | 99.9 ± 0.73
Cn1cc(-c2ccc3nnc(C(F)(F)c4ccc5ncccc5c4)n3n2)cn1 | 102 ± 1.7 | 101 ± 1.4 | 100.6 ± 0.28 | 100.3 ± 0.23 | 100.3 ± 0.95 | 98.25 ± 0.26 | 101 ± 1.6 | 100.8 ± 0.26 | 99.2 ± 1.3 | 95.7 ± 1.9 | 96.8 ± 4.5 | 98.19 ± 0.64
NC1=N[C@@]2(c3cc(NC(=O)c4ccc(F)cn4)ccc3F)COC[C@H]2CS1 | 101 ± 4.3 | 101 ± 3.9 | 100 ± 1.9 | 101 ± 2 | 99.2 ± 2.8 | 93.7 ± 1.1 | 105 ± 1.8 | 105 ± 1.3 | 105 ± 0.55 | 100 ± 1.3 | 99.9 ± 2 | 96.4 ± 1.9
Nc1nc(Nc2ccc(S(N)(=O)=O)cc2)nn1C(=O)c1c(F)cccc1F | 98.71 ± 0.9 | 105 ± 2.8 | 106.4 ± 0.39 | 110 ± 4.5 | 93.5 ± 4.2 | 40.01 ± 0.12 | 107 ± 1.5 | 102.5 ± 0.3 | 107 ± 1.8 | 104 ± 1.3 | 97 ± 1.4 | 49.9 ± 5.8
O=C(NOCC(O)CO)c1cc(Br)c(F)c(F)c1Nc1ccc(I)cc1F (configuration not stated) | 96.8 ± 0.31 | 95 ± 3 | 98.9 ± 1.2 | 93.54 ± 0.87 | 93.44 ± 0.33 | 74.3 ± 5.1 | 105 ± 4.9 | 99.7 ± 2.8 | 105.5 ± 0.56 | 106 ± 1.1 | 100 ± 1.4 | 93.7 ± 1.3
O=C(NOC[C@H](O)CO)c1ccc(F)c(F)c1Nc1ccc(I)cc1F | 96.2 ± 1.3 | 98.8 ± 2.7 | 100.2 ± 0.66 | 94.5 ± 0.99 | 87.31 ± 0.23 | 64.6 ± 1.8 | 98.6 ± 2.5 | 104 ± 4.5 | 106.7 ± 0.59 | 106.2 ± 0.49 | 98.6 ± 1 | 52.32 ± 0.36
O=C(c1ccc(F)cc1)N1CCC[C@H](c2nc(-c3ccc(F)cc3)no2)C1 | 102 ± 2.5 | 97.8 ± 7.7 | 100 ± 3.3 | 103 ± 2.4 | 105 ± 0.68 | 108 ± 4.5 | 90.9 ± 4.4 | 89.5 ± 2 | 107 ± 1.4 | 104.7 ± 0.73 | 97.3 ± 4.3 | 89.7 ± 2.8
O=C1NC(=O)/C(=C/c2ccc3nccc(-c4ccncc4)c3c2)S1 | 94.69 ± 0.22 | 101.8 ± 0.76 | 107 ± 2 | 101.5 ± 0.46 | 93.69 ± 0.33 | 33.1 ± 0.64 | 101 ± 3.6 | 106.8 ± 0.82 | 105 ± 5.2 | 97.8 ± 5.1 | 80.5 ± 5 | 32.8 ± 1.8
O=c1cc(-c2cccc3c2Sc2ccccc2S3)oc(N2CCOCC2)c1 | 78.3 ± 1.3 | 90.23 ± 0.51 | 85 ± 3.9 | 82.9 ± 0.99 | 77.06 ± 0.31 | 69.3 ± 3.3 | 101 ± 3 | 99.73 ± 0.79 | 98.3 ± 3.2 | 94.4 ± 1.1 | 100 ± 2.1 | 80.3 ± 0.73
O=c1cc(N2CCOCC2)oc2c(-c3ccccc3)cccc12 | 99.7 ± 1.1 | 100.3 ± 0.45 | 99.792 ± 0.068 | 97.55 ± 0.48 | 101.1 ± 0.21 | 65.2 ± 1.9 | 95.6 ± 1.2 | 111 ± 5 | 119.9 ± 0.6 | 113.8 ± 0.48 | 104 ± 1.5 | 80.2 ± 1.1
OCCn1cc(-c2cnc3nnn(Cc4ccc5ncccc5c4)c3n2)cn1 | 104.7 ± 0.61 | 102 ± 0.94 | 101.9 ± 0.21 | 103 ± 1.6 | 103.2 ± 0.56 | 99.7 ± 2.3 | 103 ± 2.2 | 98.7 ± 1.2 | 89.7 ± 2.1 | 100 ± 3.4 | 96 ± 2.5 | 93.2 ± 1.2
Oc1ccc([C@@H]2Oc3ccc(O)cc3[C@@H]3CCC[C@@H]32)cc1 | 106 ± 1.5 | 101.57 ± 0.083 | 103 ± 1.1 | 106 ± 2.1 | 103.1 ± 0.19 | 66.2 ± 5.5 | 120.08 ± 0.051 | 124 ± 1.3 | 105 ± 1.5 | 108 ± 2.7 | 113 ± 5.1 | 65.5 ± 4
c1ccc2c(CCNc3ccc(Nc4ccncc4)cc3)c[nH]c2c1 | 113.5 ± 1 | 103 ± 1.1 | 103 ± 1.1 | 106 ± 1.8 | 105 ± 2 | 64.7 ± 3.8 | 131 ± 2 | 122 ± 2.9 | 119.8 ± 0.41 | 114 ± 1.4 | 110 ± 6.2 | 68.7 ± 4.9
